How the values were obtained:
Yersinia pestis [1] = assay: Antibacterial activity against Yersinia pestis Colorado 92 infected in African green monkey B6783 model assessed as bacterial burden in liver at 12.5 mg/kg, iv administered within 6 hrs post onset of sustained fever as 30 mins infusion for 5 days (reference value: 5.2 10^8CFU/g); format: functional, CO92
Yersinia pestis [2] = assay: Antibacterial activity against Yersinia pestis Colorado 92 infected in African green monkey B6672 model assessed as bacterial burden in kidney at 12.5 mg/kg, iv administered within 6 hrs post onset of sustained fever as 30 mins infusion for 5 days (reference value: 7.1 10^7CFU/g); format: functional, CO92
Yersinia pestis [3] = assay: Antibacterial activity against Yersinia pestis Colorado 92 infected in African green monkey B6783 model assessed as bacterial burden in spleen at 12.5 mg/kg, iv administered within 6 hrs post onset of sustained fever as 30 mins infusion for 5 days (reference value: 1.6 10^9CFU/g); format: functional, CO92
African green monkey [4] = assay: Toxicity in African green monkey assessed as effect on serum creatinine level at 25 mg/kg administered as iv infusion twice daily for 7 consecutive days measured on day 1 by LC-MS/MS analysis; format: organism-based; settings: chlorocebus sabaeus, in vivo
Yersinia pestis [5] = assay: Antibacterial activity against Yersinia pestis Colorado 92 infected in African green monkey B6872 model assessed as bacterial burden in blood at 25 mg/kg, iv administered within 6 hrs post onset of sustained fever as 30 mins infusion for 5 days (reference value: 1.2 10^7CFU/ml); format: functional, organism-based; settings: CO92
[6] = Toxicity in African green monkey B6140 model infected with Yersinia pestis Colorado 92 assessed as total white blood cell count at 25 mg/kg, iv administered within 6 hrs post onset of sustained fever as 30 mins infusion for 10 days (reference value: 6.8 10^3/microL); format: organism-based; settings: chlorocebus aethiops, in vivo
Yersinia pestis [7] = assay: Antibacterial activity against Yersinia pestis Colorado 92 infected in African green monkey 8047 model assessed as bacterial burden in brain at 6.25 mg/kg, iv administered within 6 hrs post onset of sustained fever as 30 mins infusion for 10 days (reference value: 1.9 10^6CFU/g); format: functional, CO92
Yersinia pestis [8] = assay: Antibacterial activity against Yersinia pestis Colorado 92 infected in African green monkey B6106 model assessed as bacterial burden in liver at 25 mg/kg, iv administered within 6 hrs post onset of sustained fever as 30 mins infusion for 5 days (reference value: 5.2 10^8CFU/g); format: functional, CO92
Yersinia pestis [9] = assay: Antibacterial activity against Yersinia pestis Colorado 92 infected in African green monkey B6873 model assessed as bacterial burden in kidney at 12.5 mg/kg, iv administered within 6 hrs post onset of sustained fever as 30 mins infusion for 5 days (reference value: 7.1 10^7CFU/g); format: functional, organism-based; settings: CO92
African green monkey [10] = assay: Toxicity in African green monkey B5994 model infected with Yersinia pestis Colorado 92 assessed as serum lactate dehydrogenase level at 25 mg/kg, iv administered within 6 hrs post onset of sustained fever as 30 mins infusion for 10 days (reference value: 364 IU/L); format: organism-based; settings: chlorocebus sabaeus, in vivo
African green monkey [11] = assay: Toxicity in African green monkey 7643 model infected with Yersinia pestis Colorado 92 assessed as serum alanine aminotransferase level at 25 mg/kg, iv administered within 6 hrs post onset of sustained fever as 30 mins infusion for 10 days (reference value: 53 IU/L); format: organism-based; settings: chlorocebus sabaeus, in vivo
[12] = Toxicity in African green monkey B6408 model infected with Yersinia pestis Colorado 92 assessed as total white blood cell count at 25 mg/kg, iv administered within 6 hrs post onset of sustained fever as 30 mins infusion for 10 days (reference value: 6.9 10^3/microL); format: organism-based; settings: chlorocebus aethiops, in vivo
African green monkey [13] = assay: Toxicity in African green monkey B6408 model infected with Yersinia pestis Colorado 92 assessed as serum gamma glutamyl-transferase level at 25 mg/kg, iv administered within 6 hrs post onset of sustained fever as 30 mins infusion for 10 days (reference value: 53 IU/L); format: organism-based; settings: chlorocebus sabaeus, in vivo
African green monkey [14] = assay: Toxicity in African green monkey 7337 model infected with Yersinia pestis Colorado 92 assessed as serum lactate dehydrogenase level at 25 mg/kg, iv administered within 6 hrs post onset of sustained fever as 30 mins infusion for 10 days (reference value: 310 IU/L); format: organism-based; settings: chlorocebus sabaeus, in vivo
[15] = Cmax in African green monkey blood at 35 mg/kg administered as iv infusion twice daily for 7 consecutive days measured on day 7 by LC-MS/MS analysis; format: ADME, organism-based; parameters: dose 35 mg/kg, route intravenous; settings: chlorocebus aethiops
Yersinia pestis [16] = assay: Antibacterial activity against Yersinia pestis Colorado 92 infected in African green monkey C2149 model assessed as bacterial burden in kidney at 6.25 mg/kg, iv administered within 6 hrs post onset of sustained fever as 30 mins infusion for 5 days (reference value: 7.1 10^7CFU/g); format: functional, CO92
African green monkey [17] = assay: Toxicity in African green monkey assessed as effect on serum creatinine level at 35 mg/kg administered as iv infusion twice daily for 7 consecutive days measured on day 7 by LC-MS/MS analysis; format: organism-based; settings: chlorocebus sabaeus, in vivo
[18] = Clearance in African green monkey blood at 25 mg/kg administered as iv infusion twice daily for 7 consecutive days measured on day 1 by LC-MS/MS analysis; format: ADME, organism-based; settings: chlorocebus aethiops

CN[C@@H]1[C@@H](O)[C@@H](O[C@@H]2[C@@H](O)[C@H](O[C@H]3OC(CNCCO)=CC[C@H]3N)[C@@H](N)C[C@H]2NC(=O)[C@@H](O)CCN)OC[C@]1(C)O [PLAZOMICIN]
Activity (Yersinia pestis [1]): 8.4 ×10⁶ CFU/g | Activity (Yersinia pestis [2]): 25 CFU/g | Activity (Yersinia pestis [3]): 10 CFU/g | Activity (African green monkey [4]): 0.55 mg/dL | Activity (Yersinia pestis [5]): Below limit of detection | Activity [6]: 7.2 ×10³ /uL | Activity (Yersinia pestis [7]): 60 CFU/g | Activity (Yersinia pestis [8]): 95 CFU/g | Activity (Yersinia pestis [9]): Below limit of detection | Activity (African green monkey [10]): 403 IU/L | Activity (African green monkey [11]): 43 IU/L | Activity [12]: 5.5 ×10³ /uL | Activity (African green monkey [13]): 56 IU/L | Activity (African green monkey [14]): 469 IU/L | Cmax [15]: 185 µg/mL | Activity (Yersinia pestis [16]): 16 CFU/g | Activity (African green monkey [17]): 0.6 mg/dL | clearance [18]: 2.17 mL/min/kg
